Legend:
Type in all cases: cell-based
HCT116 cells = assay: Cytotoxic activity with CB1, CB2 and GPR55 receptor antagonists, Alamar Blue; settings: THCA 0.12 mM
Description: FIGS. 12A-C depict the determination of HCT116 cell viability using Alamar Blue fluorescence (Resazurin assay) as a function of cytotoxic effect. HCT116 cells were seeded (50,000 per well) in triplicate in 500 μL growing media and incubated for 24 h at 37° C. in a humidified 5% CO2-95% air atmosphere. […] Non-treated are the cells without TNF-α and treatments. Relative fluorescence at the excitation/emission of 544/590 nm was measured. Values were calculated as percentage of live cells relative to the non-treated (cells without TNF-α and treatments) control after reducing the autofluorescence of Alamar Blue without cells.
FIG. 12D depicts determination of HCT116 cell viability using Alamar Blue fluorescence (resazurin assay) as a function of cytotoxic effect. HCT116 cells were seeded (50,000 per well) in triplicate in 500 μL growing media and incubated for 24 hours at 37° C. in a humidified 5% CO2-95% air atmosphere. […] Treatments with F7, F1-F9, and combination of fractions without antagonists served as a positive control (Con). Non-treated are the cells without TNF-α and treatments. […] Relative fluorescence at the excitation/emission of 544/590 nm was measured. Values were calculated as percentage of live cells relative to the non-treated (cells without TNF-α and treatments) control after reducing the autofluorescence of Alamar Blue without cells. […]

GPR55 = assay: Relative gene expression by qPCR after TNF-α; settings: HCT-116; overnight TNF-α; versus GAPDH, 2-ΔΔCT; treated versus non-treated cells
Description: (§1) Transcripts for CB1, CB2 and GPR55 were detected by qPCR in HCT116 cells.

CB1 = assay: Relative gene expression by qPCR after TNF-α; settings: HCT-116; overnight TNF-α; versus GAPDH, 2-ΔΔCT; treated versus non-treated cells
Description: as §1

CB2 = assay: Relative gene expression by qPCR after TNF-α; settings: HCT-116; overnight TNF-α; versus GAPDH, 2-ΔΔCT; treated versus non-treated cells
Description: as §1

Molecule | effect of CB2 antagonist (SR144528) on cytotoxic activity (HCT116 cells; C2F 0.2 mg/mL, F7 0.08 mg/mL) | effect of CB1 antagonist (Rimonabant) on cytotoxic activity (HCT116 cells) | Mean relative expression of GPR55 (GPR55) | Mean relative expression of CB1 (CB1) | Mean relative expression of CB2 (CB2)
CCCCCc1cc2c(c(O)c1C(=O)O)[C@@H]1C=C(C)CC[C@H]1C(C)(C)O2 [THCA, tetrahydrocannabinolic acid] | significant reduction in cytotoxic activity | significant reduction in cell cytotoxic activities |  |  | 
TNF-α |  |  | 5.26 | 1.31 | 5.84
